Data published in ChEMBL document CHEMBL1201862, “PubChem BioAssay data set” (2004).
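The compound was tested at five concentrations on cells cultured in 96-well plates, with a 48-hour exposure period. GI50 = concentration required for 50% inhibition of growth.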 Active and inactive are the calls of the source. No stated cut-off is given here; in the data, active = GI50 up to about 1.1 µM and inactive = higher.

Legend:
Experiment in all cases: DTP human tumour cell line panel, 48 h
[1] = system: MOLT-4
[2] = system: DMS-114
[3] = system: TK-10
[4] = system: SF-268
[5] = system: U-251
[6] = system: OVCAR-5
[7] = system: XF498
[8] = system: NCI-H23
[9] = system: SW-620
[10] = system: DLD-1
[11] = system: UO-31
[12] = system: SNB-78
[13] = system: COLO 205
[14] = system: RXF 393
[15] = system: EKVX
[16] = system: CAKI-1
[17] = system: ACHN
[18] = system: SK-MEL-5
[19] = system: K562
[20] = system: HT-29
[21] = system: OVCAR-8
[22] = system: KM-20L2
[23] = system: SF-295
[24] = system: CCRF-CEM
[25] = system: HCC 2998
[26] = system: SK-MEL-2
[27] = system: HCT-15
[28] = system: SK-MEL-28
[29] = system: RPMI-8226
[30] = system: NCI-H522
[31] = system: Malme-3M
[32] = system: SF-539
[33] = system: LOX IMVI
[34] = system: KM12
[35] = system: HOP-92
[36] = system: UACC-257
[37] = system: UACC-62
[38] = system: NCI-H226
[39] = system: 786-0
[40] = system: LXFL 529
[41] = system: SNB-75
[42] = system: A549
[43] = system: A498
[44] = system: HOP-62
[45] = system: HL-60
[46] = system: SK-OV-3
[47] = system: OVCAR-3
[48] = system: M19-MEL
[49] = system: SN12C
[50] = system: IGROV-1
[51] = system: NCI-H460
[52] = system: M14
[53] = system: OVCAR-4
[54] = system: NCI/ADR-RES
[55] = system: DMS-273
[56] = system: MCF7

CC12CCC(=O)N1c1cccnc1N2 (centres undefined)
GI50 [1]: > 100 µM (inactive)
GI50 [2]: > 100 µM (inactive)
GI50 [3]: > 100 µM (inactive)
GI50 [4]: > 100 µM (inactive)
GI50 [5]: > 100 µM (inactive)
GI50 [6]: > 100 µM (inactive)
GI50 [7]: > 100 µM (inactive)
GI50 [8]: > 100 µM (inactive)
GI50 [9]: > 100 µM (inactive)
GI50 [10]: > 100 µM (inactive)
GI50 [11]: > 100 µM (inactive)
GI50 [12]: > 100 µM (inactive)
GI50 [13]: > 100 µM (inactive)
GI50 [14]: > 100 µM (inactive)
GI50 [15]: > 100 µM (inactive)
GI50 [16]: > 100 µM (inactive)
GI50 [17]: > 100 µM (inactive)
GI50 [18]: > 100 µM (inactive)
GI50 [19]: > 100 µM (inactive)
GI50 [20]: > 100 µM (inactive)
GI50 [21]: > 100 µM (inactive)
GI50 [22]: > 100 µM (inactive)
GI50 [23]: > 100 µM (inactive)
GI50 [24]: > 100 µM (inactive)
GI50 [25]: > 100 µM (inactive)
GI50 [26]: > 100 µM (inactive)
GI50 [27]: > 100 µM
GI50 [28]: > 100 µM (inactive)
GI50 [29]: > 100 µM (inactive)
GI50 [30]: > 100 µM (inactive)
GI50 [31]: > 100 µM (inactive)
GI50 [32]: > 100 µM (inactive)
GI50 [33]: > 100 µM (inactive)
GI50 [34]: > 100 µM (inactive)
GI50 [35]: > 100 µM (inactive)
GI50 [36]: > 100 µM (inactive)
GI50 [37]: > 100 µM (inactive)
GI50 [38]: > 100 µM (inactive)
GI50 [39]: > 100 µM (inactive)
GI50 [40]: > 100 µM (inactive)
GI50 [41]: > 100 µM (inactive)
GI50 [42]: > 100 µM (inactive)
GI50 [43]: > 100 µM (inactive)
GI50 [44]: > 100 µM (inactive)
GI50 [45]: > 100 µM (inactive)
GI50 [46]: > 100 µM (inactive)
GI50 [47]: > 100 µM (inactive)
GI50 [48]: > 100 µM (inactive)
GI50 [49]: > 100 µM (inactive)
GI50 [50]: > 100 µM (inactive)
GI50 [51]: > 100 µM (inactive)
GI50 [52]: > 100 µM (inactive)
GI50 [53]: > 100 µM (inactive)

Cc1cc(-c2ccc(/N=N/c3ccc4c(S(=O)(=O)O)cc(S(=O)(=O)O)c(N)c4c3O)c(C)c2)ccc1/N=N/c1ccc2c(S(=O)(=O)O)cc(S(=O)(=O)O)c(N)c2c1O [EVANS BLUE FREE ACID]
GI50 [4]: > 100 µM (inactive)
GI50 [5]: > 100 µM (inactive)
GI50 [6]: > 100 µM (inactive)
GI50 [54]: > 100 µM (inactive)
GI50 [7]: > 77.3 µM (inactive)
GI50 [8]: > 100 µM (inactive)
GI50 [9]: > 100 µM (inactive)
GI50 [11]: 62.7 µM (inactive)
GI50 [12]: > 85.7 µM (inactive)
GI50 [14]: > 95.5 µM (inactive)
GI50 [15]: > 100 µM (inactive)
GI50 [19]: > 100 µM (inactive)
GI50 [20]: > 100 µM (inactive)
GI50 [21]: > 100 µM (inactive)
GI50 [22]: > 100 µM (inactive)
GI50 [23]: > 100 µM (inactive)
GI50 [25]: > 100 µM (inactive)
GI50 [26]: > 100 µM (inactive)
GI50 [27]: > 100 µM
GI50 [28]: > 100 µM (inactive)
GI50 [55]: > 100 µM (inactive)
GI50 [30]: > 100 µM (inactive)
GI50 [32]: > 100 µM (inactive)
GI50 [36]: > 100 µM (inactive)
GI50 [38]: > 76.2 µM (inactive)
GI50 [56]: > 100 µM (inactive)
GI50 [41]: 77.3 µM (inactive)
GI50 [42]: > 100 µM (inactive)
GI50 [43]: > 100 µM (inactive)
GI50 [45]: > 100 µM (inactive)
GI50 [46]: > 100 µM (inactive)
GI50 [47]: > 100 µM (inactive)
GI50 [48]: > 100 µM (inactive)
GI50 [49]: > 100 µM (inactive)
GI50 [51]: > 100 µM (inactive)
GI50 [53]: 59.2 µM (inactive)
